These results are taken from ChEMBL document CHEMBL1201862, “PubChem BioAssay data set” (2004).

Values joined by “and” are separate entries in the source; they are usually repeats but may differ in a detail not shown here. Equal values may be shown once.

The target of the first assay is T1, Cytochrome P450 1A2 (Homo sapiens, UniProt P05177).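 Also: PubChem cytochrome P450 panel assay, CYP1A2 panel member.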
T1 sequence (P05177 whole entry): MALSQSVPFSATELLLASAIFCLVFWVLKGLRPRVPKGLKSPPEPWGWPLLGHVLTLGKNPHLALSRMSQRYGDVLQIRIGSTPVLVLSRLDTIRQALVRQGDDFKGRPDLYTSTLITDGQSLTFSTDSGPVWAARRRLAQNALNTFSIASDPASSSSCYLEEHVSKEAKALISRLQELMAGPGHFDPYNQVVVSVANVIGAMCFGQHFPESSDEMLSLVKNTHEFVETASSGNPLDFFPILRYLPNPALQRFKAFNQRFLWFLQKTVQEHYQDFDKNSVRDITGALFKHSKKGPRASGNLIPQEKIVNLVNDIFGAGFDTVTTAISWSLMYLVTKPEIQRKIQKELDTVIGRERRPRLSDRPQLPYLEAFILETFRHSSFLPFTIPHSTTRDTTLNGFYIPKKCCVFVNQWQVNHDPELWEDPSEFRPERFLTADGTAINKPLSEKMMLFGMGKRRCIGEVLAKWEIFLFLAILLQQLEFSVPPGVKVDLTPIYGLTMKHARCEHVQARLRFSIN
`COc1ccccc1CN1CC[C@@]2(CCCN(C(=O)c3ccco3)C2)C1`: the AC50 was 39.8 µM (inconclusive).

On to `COc1cccc(-c2cncnc2NCCN2CCOCC2)c1`, for which the AC50 was 15.8 µM (inconclusive).

As for `Cc1noc(C)c1-c1ccc2ncnc(NC3CCNCC3)c2c1`, the concentration at half-maximal activity (AC50) is 31.6 µM (inconclusive).

For the compound `CCN(CC)c1ccc(N2C(=O)/C(=C\c3cccnc3)SC2=S)cc1`, the AC50 was 1.41 µM (inconclusive).

Consider `Cc1ccccc1-c1nc(NC2CCNCC2)c2ccccc2n1`, for which the AC50 was 20 µM (inconclusive).

Take `Cc1cnc(CNc2ncncc2-c2cccc(NS(C)(=O)=O)c2)cn1`: the AC50 is 31.6 µM (inconclusive).

With `COc1ccccc1-c1cncnc1N1CCN(C)CC1`, the AC50 is 12.6 µM (inconclusive).

Regarding `CCN1CCc2c(sc(NC(=S)NC(=O)c3ccccc3)c2C#N)C1`, the AC50 is 14.1 µM (inconclusive).

As to `Cc1onc(C(=O)/C=C/N(C)C)c1C(=O)Nc1nccs1`, the AC50 was 0.631 µM (inconclusive).

For `Cn1cnc([N+](=O)[O-])c1Sc1nc(N)nc2c1ncn2Cc1ccccc1`, the AC50 is 3.16 µM (inconclusive).

Take `O=C(Nc1cccnc1Cl)C1c2ccccc2Oc2ccccc21`: the AC50 is 3.16 µM (inconclusive).

`N[C@H](Cc1ccc(N(CCCl)CCCl)cc1)C(=O)O`: the AC50 was 15.8 µM (inconclusive).

As for `NNS(=O)(=O)c1cc(C(=O)O)cc(C(=O)O)c1`, the AC50 is 0.001 µM (inconclusive).

Consider `N[C@H](CCCP(=O)(O)O)C(=O)O`, for which the AC50 is 25.1 µM (inconclusive) and 31.6 µM (inconclusive).

For another assay, the target named is Cytochrome P450 3A4 (Homo sapiens, UniProt P08684).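 Also: CYP3A4 tested as one member of a cytochrome P450 panel screen.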
Sequence of Cytochrome P450 3A4 (P08684 whole entry): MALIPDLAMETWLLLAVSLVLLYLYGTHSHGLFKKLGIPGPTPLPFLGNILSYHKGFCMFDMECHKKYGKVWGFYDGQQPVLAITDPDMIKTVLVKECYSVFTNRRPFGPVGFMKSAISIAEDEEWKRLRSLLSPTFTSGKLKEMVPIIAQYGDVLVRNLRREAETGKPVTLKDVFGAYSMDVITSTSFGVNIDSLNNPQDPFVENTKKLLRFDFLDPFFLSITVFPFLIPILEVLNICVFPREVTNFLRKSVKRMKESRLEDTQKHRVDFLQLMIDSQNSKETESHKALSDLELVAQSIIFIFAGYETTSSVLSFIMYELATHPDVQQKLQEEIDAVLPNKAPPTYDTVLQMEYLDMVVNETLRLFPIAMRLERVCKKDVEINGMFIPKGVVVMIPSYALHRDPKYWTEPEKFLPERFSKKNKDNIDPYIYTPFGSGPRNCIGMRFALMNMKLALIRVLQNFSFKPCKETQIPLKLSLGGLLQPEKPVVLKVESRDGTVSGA
Take `COc1cccc(-c2cncnc2NCCN2CCOCC2)c1`: the AC50 was 3.16 µM (inconclusive).

`Cc1ccc(S(=O)(=O)O[C@H]2C[C@@H](C(C)(C)C)CC[C@@H]2c2ccccc2)cc1`: the AC50 was 2 µM (inconclusive).

Turning to `S=C(Nc1ccc2c(c1)Cc1ccccc1-2)Nc1ccc2c(c1)Cc1ccccc1-2`, the AC50 was 3.98 µM (inconclusive).

`CC1CC(C)CN(CCCNC(=O)C2CCCN(c3nnc(N4CCCC4=O)s3)C2)C1` (centres undefined): the AC50 was 28.2 µM (inconclusive).

Turning to `C=CCn1c(NCc2ccccc2)nc2ccccc21`, the AC50 was 25.1 µM (inconclusive).

As for `O=C(c1cc(-c2ccccc2)nc2ccccc12)N1CCC2(CC1)OCCO2`, the AC50 was 25.1 µM (inconclusive).

`Cc1ccc(/N=N\c2ccc(N)cc2C)c(S(N)(=O)=O)c1`: the AC50 was 3.98 µM (inconclusive).

Regarding `COc1ccc2c3c([nH]c2c1)C(C)=NCC3`, the half-maximal activity concentration (AC50) was 2.51 µM (inconclusive).

Consider `CC(C)(C)NS(=O)(=O)c1ccc(NS(=O)(=O)c2ccc(F)cc2)cc1`, for which the AC50 is 15.8 µM (inconclusive).

Take `COc1ccc(OC)c(Nc2nc(-c3sc(NC(=O)c4ccccc4)nc3C)cs2)c1`: the AC50 is 28.2 µM (inconclusive).

Take `CCN1CCc2c(sc(NC(=S)NC(=O)c3ccccc3)c2C#N)C1`: the AC50 is 20 µM (inconclusive).

As for `O=C(NCCCN1CCc2ccccc2C1)C1CCN(S(=O)(=O)N2CCCC2)CC1`, the AC50 was 20 µM (inconclusive).

For the compound `CCOC(=O)CC(NC(=O)c1ccc(C)cc1)c1ccc(C)cc1` (centres undefined), the AC50 is 25.1 µM (inconclusive).

Consider `O=C(Nc1cccnc1Cl)C1c2ccccc2Oc2ccccc21`, for which the AC50 was 14.1 µM (inconclusive).

As for `C/C(=N/NC(=O)c1ccc(C)s1)c1cccc(NC(=O)COc2ccc(Cl)cc2C)c1`, the AC50 is 1.12 µM (inconclusive).
